Test results taken from patent publication US20190282497A1 (Bryn Pharma, LLC, priority 2018, published 2019).

Tested on: histamine induced nasal congestion

NCCc1c[nH]cn1 [Histamine, histamine]
nasal congestion and flow restriction pressure (Group 1, 5 and 10 minutes post-histamine exposure): progressive increase in nasal congestion and flow restriction pressure | histamine induced congestion without epinephrine (pilot study, no epinephrine, 60, 80 and 100 minute time points): remains elevated at significant levels
